These results are taken from patent US20070043118A1, “Method of treating a subject suffering from degenerative disc disease using a nitric oxide synthase inhibitor” (Discogen, LLC, priority 2005, published 2007).

The subject of experiment [1] is patients with chronic intractable lower back pain and positive discography. Briefly: Biochemical injection treatment in human subjects (intradiscal injection; disability questionnaire and visual analogue pain scale). It is filed as in vivo. Particulars: intradiscal injection of 1 to 2 cc disc solution per involved disc. From the text:
Thirty patients with chronic intractable lower back pain and positive discography would participate in the study. These would be adult patients with chronic lower back pain who have been unresponsive or responded poorly to multiple previous methods of treatment, including physical therapy, multiple analgesics, injection therapy, laminectomies, fusions and intradiscal electrothermal annuloplasty (IDET) procedures. These patients would have positive discography at one or more lumbar levels and concordant pain provocation combined with morphologic disc abnormalities.
Using sterile techniques and United States Pharmacopeia-grade pharmaceuticals solutions containing the NOS inhibitors are prepared, specifically, one solution is prepared for each of GED, L-NAME, and L-NMMA. The “GED disc solution” consists of 0.3 mg/kg to 10 mg/kg GED by subject weight; 1.0 to 100 micromolar by concentration. The “L-NAME disc solution” consists of 1.0 mg/kg L-NAME by subject weight; 5.0 to 100 micromolar by concentration. The “L-NMMA disc solution” consists of 1.0 mg/kg L0NMA by subject weight; 5.0 to 100 micromolar by concentration. These concentrations are derived based on solubility and tolerance characteristics of the constituents. These are mixed with 33% nonionic contrast and 33% of 50% dextrose at the time of injection. A total of 1 to 2 cc of each solution is injected into each involved disc. All solutions are tested on separate patients. Injection promptly terminates if there is any leakage of contrast into the epidural space. Zygapophyseal joint injections are performed after fluroscopic confirmation of correct needle placement using intra-articular contrast and are performed at the same levels as the disc injections.
To avoid patient discomfort, the first series of injections are performed at the time of diagnostic discography. An intradiscal injection of 1 to 2 cc is used at each involved disc level. The levels are determined by discography. This is combined with injection of the zygapophyseal joints at the painful disc level(s) with the modified solution mixture as described above. […]

Experiment [2] deals with disc tissue obtained from human subjects. Particulars: in vitro; cited from earlier work.

On to `[H]/N=C(\NC)NCCC[C@H](N)C(=O)O` [L-NMMA, N-monomethyl-L-arginine], for which the “treatment outcome: pain and disability before and after treatment (disability questionnaire 0-24, visual analogue pain scale 0-10)” value in experiment [1] was “effective in treating the patients and providing symptomatic relief”. Further, the “level of NO present in disc tissue” value in experiment [2] was “reduce the level of NO present”. Turning to `N=C(N)NCCSSCCNC(=N)N` [GED, guanidinoethyldisulfide], the “treatment outcome: pain and disability before and after treatment (disability questionnaire 0-24, visual analogue pain scale 0-10)” value in experiment [1] was “effective in treating the patients and providing symptomatic relief”. Turning to `COC(=O)[C@@H](N)CCCNC(=N)N[N+](=O)[O-]` [L-NAME, nitro-L-arginine methyl ester], the “treatment outcome: pain and disability before and after treatment (disability questionnaire 0-24, visual analogue pain scale 0-10)” value in experiment [1] is “effective in treating the patients and providing symptomatic relief”.
